The assay deals with SARS-CoV-2 M^pro (main protease, 3CL^pro, NSP5) (Severe acute respiratory syndrome coronavirus 2, UniProt P0DTD1). As to the kind of experiment: fluorogenic substrate cleavage, Morrison fit. Type of assay: biochemical. Particulars: HEPES 25 mM pH 7.0; fluorogenic substrate SAE0180.

Usually Ki stands for a dissociation constant, usually derived from enzyme kinetics or from competition with a known ligand. Lower therefore signals higher affinity.

In turn, `O=C(NCCN1CCCC1)N1c2ccccc2Sc2ccccc21` [compound 3, 4080] returned an inhibition constant (Ki) of 80 µM.
